Data reported in US20240358692A1, “TREATMENT OF SCLERODERMA” (Aisa Pharma, Inc., priority 2023, published 2024).

What was measured:
[1] = tested on: participants with SSc-RP; assay: Average duration of weekly RP attacks (minutes), patient diary; type: in vivo, human; details: Tadalafil 5 mg
Excerpt: The absolute change in average duration of weekly RP attacks from baseline to the end of each dosing period was and will be a secondary outcome variable. The sponsor-developed participant-informed diary was and will be used to record data. Average duration of weekly RP attacks is defined as the total duration of RP attacks divided by total number of RP attacks within the last 7 days of each dosing period. Total duration of RP attacks during the last 7 days of screening period divided by the total number of RP attacks will be used as baseline for the analysis of all periods. The variable will be calculated similar to frequency data as before.

[2] = tested on: participants with SSc-RP; assay: SHAQ - Visual Analog Scale - Intestinal Problems; type: in vivo, human; design: Visual Analog Scale-Intestinal Problems, In Clinic Visit (Day 12), Mean / Visual Analog Scale-Intestinal Problems, In Clinic Visit (Day 12), Median / Visual Analog Scale-Intestinal Problems, Change from Baseline, Mean / Visual Analog Scale-Intestinal Problems, Change from Baseline, Median / SHAQ Visual Analogue Scale - Intestinal Problems, In-Clinic Visit (Day 12), Median: scale not given here
Excerpt: The standard, validated, patient reported outcome measures tool for SSc patients, the Scleroderma Health Assessment Questionnaire (SHAQ), will be used to assess the participant qualify of life. Details are attached in the Appendix. The participant quality of life will be scored, and a disability index calculated for each questionnaire completed by the patient at Screening and each in-clinic visit. The absolute change in participant quality of life from baseline to the end of each dosing period will be calculated similar to frequency data as before.
The standard, validated, patient reported outcome measures tool for SSc patients, the SHAQ, was collected at the time points specified in the study schedules (FIG. 2 and FIGS. 4A and 4B) to assess the participant's quality of life. The SHAQ included a Raynaud's VAS that will also be reported separately.

[3] = Excluding Outliers, ITT Population - Part A, last 7 days of dosing period
[4] = by Baseline RCS, second RCS subgroup of table (not named), ITT Population - Part A
[5] = excluding outliers, 2nd baseline RCS subgroup, ITT Part A
[6] = last 7 days of dosing period, ITT Part A
[7] = Modified ITT Population-Part A, Day 12, dose cilnidipine 10 mg, tadalafil 5 mg, alone or combined as labelled
[8] = Tadalafil 5 mg, SSc patients, PP, Part A

CN1CC(=O)N2[C@H](c3ccc4c(c3)OCO4)c3[nH]c4ccccc4c3C[C@@H]2C1=O [Tadalafil]
Average Duration of Weekly RP Attacks (All Attacks), Mean [1, 3]: 5.95 min | Average Duration of Weekly RP Attacks (All Attacks), Median [1, 3]: 5.95 min | Change from Baseline in average duration of weekly symptomatic RP attacks, Mean [1, 4]: 140.74 min | Change from Baseline in average duration of weekly symptomatic RP attacks, Median [1, 4]: 140.74 min | Percent Change from Baseline in average duration of weekly symptomatic RP attacks, Mean [1, 4]: 5.21% | Percent Change from Baseline in average duration of weekly symptomatic RP attacks, Median [1, 4]: 5.21% | Average duration of weekly RP attacks, Change from Baseline, Mean [1, 5]: -4.98 min | Average duration of weekly RP attacks, Change from Baseline, Median [1, 5]: -4.98 min | Average duration of weekly RP attacks, Percent Change from Baseline, Mean [1, 5]: −45.55% | Average duration of weekly RP attacks, Percent Change from Baseline, Median [1, 5]: −45.55% | Average Duration of weekly symptomatic RP attacks, Mean [1, 6]: 412.29 min | Average Duration of weekly symptomatic RP attacks, Median [1, 6]: 412.29 min | Visual Analog Scale-Intestinal Problems, Change from Baseline, Median [2, 7]: 0.000 | Visual Analog Scale-Intestinal Problems, Percent Change from Baseline, Median [2, 7]: 0.00% | SHAQ VAS Intestinal Problems, Change from Baseline, Max [2, 8]: 1.80 | SHAQ VAS Intestinal Problems, Change from Baseline, Median [2, 8]: 0.000 | SHAQ VAS Intestinal Problems, Change from Baseline, Min [2, 8]: −2.30, | SHAQ VAS Intestinal Problems, Change from Baseline, Q1 [2, 8]: −1.150, | SHAQ VAS Intestinal Problems, Change from Baseline, Q3 [2, 8]: 0.900 | SHAQ VAS Intestinal Problems, Day 12, Max [2, 8]: 9.20 | SHAQ VAS Intestinal Problems, Day 12, Mean [2, 8]: 3.025 | SHAQ VAS Intestinal Problems, Day 12, Median [2, 8]: 1.450 | SHAQ VAS Intestinal Problems, Day 12, Min [2, 8]: 0.00, | SHAQ VAS Intestinal Problems, Day 12, Q1 [2, 8]: 0.050, | SHAQ VAS Intestinal Problems, Day 12, Q3 [2, 8]: 6.000 | SHAQ VAS Intestinal Problems, Percent Change from Baseline, Max [2, 8]: 24.3 | SHAQ VAS Intestinal Problems, Percent Change from Baseline, Mean [2, 8]: −6.92 | SHAQ VAS Intestinal Problems, Percent Change from Baseline, Median [2, 8]: 0.00 | SHAQ VAS Intestinal Problems, Percent Change from Baseline, Min [2, 8]: −45.1, | SHAQ VAS Intestinal Problems, Percent Change from Baseline, Q1 [2, 8]: −45.10, | SHAQ VAS Intestinal Problems, Percent Change from Baseline, Q3 [2, 8]: 24.32
